{
  "source": "patent US20220233656A1",
  "about": "“ANTIBACTERIAL COMPOSITION” (NATIONAL UNIVERSITY CORPORATION TOKYO MEDICAL AND DENTAL …, priority 2019, published 2022)",
  "key": {"[1]": {"tested_on": "Pseudomonas aeruginosa (NBRC 13275)", "assay": "Transmission electron microscope observation", "format": "cell-based", "settings": "37° C., 2 hours, complex 1,000 μg/mL, mixture 500 + 500 μg/mL; for morphological changes (TEM): lysozyme alone 500 μg/mL, chitosan alone 500 μg/mL", "protocol": "(§1) As a control, physiological saline (0.9% NaCl solution) was used.\n(§2) Then, centrifugation was performed, and the resultant pellets were washed with physiological saline (0.9% NaCl), fixed in a 1.0% buffered osmium tetroxide buffer solution in a 0.1 M phosphate buffered saline for 1 hour, embedded in 2.0% agar, dehydrated with ethanol, and then embedded in Epon 812 (TAAB Laboratories Equipment Ltd.). Ultrathin sections of 70 nm were collected on a copper grid, double-stained with uranyl acetate and lead citrate, and observed with a transmission electron microscope (H-7100) at 75 kV."}, "Acinetobacter baumannii [2]": {"tested_on": "Acinetobacter baumannii", "assay": "Transmission electron microscope observation", "format": "cell-based", "settings": "37° C., 2 hours, complex 1,000 μg/mL, mixture 500 + 500 μg/mL; for morphological changes (TEM): lysozyme alone 500 μg/mL, chitosan alone 500 μg/mL", "protocol": "as §1, §2"}, "[3]": {"tested_on": "Acinetobacter baumannii (JCM 6841)", "assay": "Bacteria-killing test (Experimental Example 1)", "format": "cell-based", "settings": "2,000 μg/mL in physiological saline, 37° C., at 60 minutes and 120 minutes, versus control", "protocol": "The bacteria-killing property of the lysozyme-chitosan complex (LYZOX (registered trademark)) against Acinetobacter and the like was measured in comparison with a mixture of lysozyme and chitosan and the like.\n(§3) As a control, physiological saline (0.9% NaCl solution) was used. The Acinetobacter bacterial suspension or Pseudomonas aeruginosa bacterial suspension was prepared as follows. Pseudomonas aeruginosa (NBRC 13275 or PAO1) or Acinetobacter baumannii (JCM 6841) was grown overnight at 37° C. in trypsin soy broth (TSB), centrifuged during the logarithmic growth phase, and collected, and the bacteria were resuspended in physiological saline (0.9% NaCl), with such a final suspension concentration that the absorbance was 1.0 (10^8 to 10^9 CFU/mL) at 600 nm.\n(§4) At 0 minutes, 30 minutes, 60 minutes, and 120 minutes after the start of incubation, 0.1 mL of each solution was added to a solid medium (Mueller-Hinton medium) for overnight growth, and then the bacteria count was measured. The test of the bacterial suspensions against each solution was performed three times and measured."}, "[4]": {"tested_on": "Pseudomonas aeruginosa (NBRC 13275)", "assay": "Growth suppression effect test at various concentrations (Experimental Example 4)", "format": "cell-based", "settings": "2,000 μg/mL, 5,000 μg/mL and 10,000 μg/mL in TSB, 6 hours", "protocol": "(§5) As a control, TSB medium without additives was used. The Acinetobacter bacterial suspension or Pseudomonas aeruginosa bacterial suspension was prepared in the same way as in Experimental Example 1 described above. […] After 6 hours, 0.1 mL of each solution was added to a solid medium (Mueller-Hinton medium) and allowed to grow overnight, and then the bacteria count was measured. The bacterial suspensions were tested on each solution 18 times for Pseudomonas aeruginosa (NBRC 13275) and 8 times each for Pseudomonas aeruginosa (PAO1) and Acinetobacter by duplicate (mean of triplicate measurements and SEM (standard error of sample mean)) in independent experiments."}, "[5]": {"tested_on": "Acinetobacter baumannii (JCM 6841)", "assay": "Growth suppression effect test (Experimental Example 3)", "format": "cell-based", "settings": "2,000 μg/mL in TSB, 37° C., 6 hours, versus control", "protocol": "as §5"}, "[6]": {"tested_on": "Pseudomonas aeruginosa (NBRC 13275 and PAO 1)", "assay": "Drug resistance acquisition test (MIC after repeated subculture)", "format": "cell-based", "settings": "after 10 subcultures at ½ MIC in LB medium", "protocol": "(§6) The MIC was defined as the minimum concentration of the reagent without visual turbidity observed after 18 hours and 24 hours of evaluation. […] The bacteria that were not subcultured was evaluated as a control (CTL in FIGS. 10A and 10B). MIC measurements were repeated 10 times to evaluate the development of drug resistance in these bacteria."}, "Acinetobacter baumannii [7]": {"tested_on": "Acinetobacter baumannii", "assay": "Drug resistance acquisition test (MIC after repeated subculture)", "format": "cell-based", "settings": "after 10 subcultures at ½ MIC in LB medium", "protocol": "as §6"}, "[8]": {"tested_on": "Pseudomonas aeruginosa (NBRC 13275)", "assay": "Cell membrane integrity test (absorbance at 260 nm)", "format": "cell-based", "source_text": "(§7) The measurement of absorbance at 260 nm (A260nm) was used to estimate the amount of nucleic acid released from the cytoplasm, thereby evaluating the integrity of the cell membrane. When a bacterial cell membrane is compromised by an antibacterial agent, intracellular components are released into the extracellular space. The measurement of absorbance at 260 nm is used to estimate the amount of DNA and RNA released from the cytoplasm.\n(§8) Specifically, evaluation on whether substances with absorption at 260 nm were released from the bacteria was performed by measuring the absorption at 260 nm with ND-1000 manufactured by Thermo Fisher Scientific. […] As a control, a 0.5% NaCl solution was used. The Pseudomonas aeruginosa bacterial suspension and Acinetobacter bacterial suspension prepared in the same manner as in Experimental Example 1 were resuspended in a 0.5% NaCl solution, and prepared with such a final suspension concentration that the absorbance at 420 nm was 0.7. […] At 20 minutes, 40 minutes, 60 minutes, 80 minutes, 100 minutes, and 120 minutes after the start of incubation, each solution was subjected to a 0.22 μm syringe filter to remove bacteria, and the absorbance at 260 nm (A260nm) was measured. The results for absorbance, expressed as the average of triplicate measurements and SEM (standard error of sample mean), are shown in FIGS. 4A and 4B."}, "Acinetobacter (JCM 6841) [9]": {"tested_on": "Acinetobacter (JCM 6841)", "assay": "Confocal laser scanning microscope observation (LIVE/DEAD BacLight)", "format": "cell-based, Acinetobacter baumannii", "settings": "final 1,000 μg/mL, 37° C., 2 hours", "protocol": "(§9) As a control, physiological saline (0.9% NaCl solution) was used. To 500 μL of these solutions, 500 μL of Pseudomonas aeruginosa bacterial suspension and Acinetobacter bacterial suspension prepared in the same manner as in Experimental Example 1 above was added, and incubated at 37° C. for 2 hours. Then, 3 μL of LIVE/DEAD BacLight reagent (a mixture of SYTO 9 and propidium iodide (PI), which stain nucleic acids) was added and further incubated for 15 minutes at room temperature. SYTO 9 with green fluorescence labels all bacteria, while PI with red fluorescence permeates only bacteria with damaged plasma membranes, and the presence of both dyes attenuates the fluorescence of SYTO 9."}, "[10]": {"tested_on": "Pseudomonas aeruginosa (NBRC 13275)", "assay": "Bacteria-killing test at various concentrations (Experimental Example 2)", "format": "cell-based", "settings": "200 μg/mL, 2,000 μg/mL and 10,000 μg/mL in physiological saline", "protocol": "as §3, §4"}, "Acinetobacter (JCM 6841) [11]": {"tested_on": "Acinetobacter (JCM 6841)", "assay": "Cell membrane integrity test (absorbance at 260 nm)", "format": "cell-based, Acinetobacter baumannii", "source_text": "as §7, §8"}, "[12]": {"tested_on": "Pseudomonas aeruginosa (NBRC 13275)", "assay": "Confocal laser scanning microscope observation (LIVE/DEAD BacLight)", "format": "cell-based", "settings": "final 1,000 μg/mL, 37° C., 2 hours", "protocol": "as §9"}, "[13]": {"tested_on": "Pseudomonas aeruginosa (NBRC 13275)", "assay": "ONPG assay (intracellular membrane permeability test)", "format": "cell-based", "settings": "final 200, 2,000 and 5,000 μg/mL", "protocol": "(§10) Intracellular membrane permeability was determined by ONPG assay (o-nitrophenyl-β-D-galactopyranoside (ONPG) assay). When the cell membrane is damaged, intracellular enzymes, including β-galactosidase, leak out of the cell. ONPG is normally colorless, but is hydrolyzed by β-galactosidase to galactose and o-nitrophenol, resulting in an increase in absorbance at 420 nm. The intracellular membrane permeability of bacteria can be determined by measuring the activity of cytosolic β-galactosidase released from the bacteria using ONPG as a substrate.\n(§11) Specifically, evaluation on whether substances with absorption at 420 nm were released was performed by measuring the absorption at 420 nm with the spectrophotometer ASV11D. […] As a control, a 0.5% NaCl solution was used. The Pseudomonas aeruginosa bacterial suspension and Acinetobacter bacterial suspension prepared in the same manner as in Experimental Example 1 were resuspended in a 0.5% NaCl solution, and prepared with such a final suspension concentration that the absorbance at 420 nm was 1.2. […] The increase in absorbance at 420 nm (A420nm) was evaluated by performing triplicate measurements."}, "Acinetobacter (JCM 6841) [14]": {"tested_on": "Acinetobacter (JCM 6841)", "assay": "ONPG assay (intracellular membrane permeability test)", "format": "cell-based, Acinetobacter baumannii", "settings": "for absorbance 420 nm (ONPG), time course: up to 100 minutes", "protocol": "as §10, §11"}, "[15]": {"settings": "final 2,000, 5,000 and 10,000 μg/mL, 0.5% NaCl, 37° C."}, "[16]": {"settings": "various concentrations, 20 to 120 minutes"}},
  "data": [
    {"substance": "lysozyme alone: lysozyme (manufactured by Nippon Biocon Ltd.), enzyme that hydrolyzes mucopolysaccharides [reference compound]", "values": [
      {"measurement": "morphological changes (TEM)", "setting": "[1]", "result": "formed spheroplasts"},
      {"measurement": "morphological changes (TEM)", "setting": "Acinetobacter baumannii [2]", "result": "formed spheroplasts"}
    ]},
    {"substance": "lysozyme-chitosan complex: Commercial LYZOX powder: chicken-derived lysozyme (about 14,000 Da) and about 5,000 Da water-soluble chitosan, mass ratio 1:1, bound by Maillard reaction", "values": [
      {"measurement": "bacteria count (bacteria-killing)", "setting": "[3]", "result": "significantly reduced the bacteria count than the control"},
      {"measurement": "growth suppression effect (bacteria count)", "setting": "[4]", "result": "concentration-dependent growth suppression effect"},
      {"measurement": "bacteria count (growth suppression)", "setting": "[5]", "result": "significantly reduced the bacteria count than the control"},
      {"measurement": "acquisition of drug resistance (change of MIC)", "setting": "[6]", "result": "did not acquire resistance"},
      {"measurement": "acquisition of drug resistance (change of MIC)", "setting": "Acinetobacter baumannii [7]", "result": "did not acquire resistance"},
      {"measurement": "absorbance 260 nm, dependence on concentration", "setting": "[8]; [15]", "result": "increased in a concentration-dependent manner"},
      {"measurement": "absorbance 260 nm, time course", "setting": "[8]; [16]", "result": "increased rapidly in the first 20 minutes, and then the rate of increase decreased until 120 minutes"},
      {"measurement": "aggregation of bacterial cells (CLSM)", "setting": "Acinetobacter (JCM 6841) [9]", "result": "less aggregation of bacterial cells than Pseudomonas aeruginosa"},
      {"measurement": "bacterial cells with damaged membranes (red fluorescence, CLSM)", "setting": "Acinetobacter (JCM 6841) [9]", "result": "more bacterial cells with damaged membranes than in the corresponding control"},
      {"measurement": "hemolysis of rabbit erythrocytes", "setting": "rabbit erythrocytes", "result": "almost did not hemolyze"},
      {"measurement": "bacteria-killing activity (bacteria count)", "setting": "[10]", "result": "concentration-dependent bacteria-killing activity"},
      {"measurement": "absorbance 260 nm, dependence on concentration", "setting": "Acinetobacter (JCM 6841) [11]; [15]", "result": "increased in a concentration-dependent manner"},
      {"measurement": "absorbance 260 nm compared to the control", "setting": "Acinetobacter (JCM 6841) [11]; final 2,000, 5,000 and 10,000 μg/mL, 20 to 120 minutes", "result": "higher absorbance in Acinetobacter compared to the control"},
      {"measurement": "absorbance 260 nm, time course", "setting": "Acinetobacter (JCM 6841) [11]; [16]", "result": "increased rapidly in the first 20 minutes, and then the rate of increase decreased until 120 minutes"},
      {"measurement": "aggregation of bacterial cells (CLSM)", "setting": "[12]", "result": "aggregated to form clusters"},
      {"measurement": "bacterial cells with damaged membranes (red fluorescence, CLSM)", "setting": "[12]", "result": "more bacterial cells with damaged membranes than in the corresponding control"},
      {"measurement": "morphological changes (TEM)", "setting": "[1]", "result": "spherical cells with outer membrane vesicles"},
      {"measurement": "cell walls and intracellular contents (TEM)", "setting": "[1]", "result": "bacterial cell walls were disrupted and the intracellular contents were released from the cells"},
      {"measurement": "morphological changes (TEM)", "setting": "Acinetobacter baumannii [2]", "result": "spherical cells with outer membrane vesicles"},
      {"measurement": "cell walls and intracellular contents (TEM)", "setting": "Acinetobacter baumannii [2]", "result": "bacterial cell walls were disrupted and the intracellular contents were released from the cells"},
      {"measurement": "absorbance 420 nm (ONPG), dependence on concentration", "setting": "[13]", "result": "increased in a concentration-dependent manner"},
      {"measurement": "absorbance 420 nm (ONPG), time course", "setting": "Acinetobacter (JCM 6841) [14]; 200 μg/mL", "result": "increased in the first 10 minutes and remained constant thereafter"},
      {"measurement": "absorbance 420 nm (ONPG), time course", "setting": "Acinetobacter (JCM 6841) [14]; 2,000 μg/mL and 5,000 μg/mL", "result": "increased rapidly at first and then slowly until 100 minutes"},
      {"measurement": "effect on the inner membrane", "setting": "Acinetobacter (JCM 6841) [14]; ONPG assay", "result": "disrupt the inner membrane of Acinetobacter"},
      {"measurement": "absorbance 420 nm (ONPG), dependence on concentration", "setting": "Acinetobacter (JCM 6841) [14]; final 200, 2,000 and 5,000 μg/mL", "result": "increased in a concentration-dependent manner"}
    ]},
    {"substance": "poly-β1→4-glucosamine [chitosan alone, reference compound]", "values": [
      {"measurement": "morphological changes (TEM)", "setting": "[1]", "result": "formed numerous vesicles on their surfaces"},
      {"measurement": "morphological changes (TEM)", "setting": "Acinetobacter baumannii [2]", "result": "formed numerous vesicles on their surfaces"}
    ]}
  ]
}
